# From patent US5432172A, “Biological applications of alkaloids derived from the tunicate Eudistoma sp” (The Research Foundation of State University of New York, priority 1993, dated 1995)
# Entries after “also recorded” stand apart in the source; their conditions may differ. Read-outs that look alike come from different tables or passages of the source.
# What was measured:
# [1] = tested on: NIL8-HSV cells
# Experimental: A-D Cells grown for 6 days in the absence of drugs (A), or in the presence of 75 μM forskolin (B), 13 μM Segoline B (C) or 0.21 μM Eilatin (D). E and F show the appearance of the Segoline B- and Eilatin-treated cells, 7 days after removal of the toxins.
# A: F-actin staining in control cells. B: F-actin staining in a cell treated for 4 days with 13 μM Segoline B.
# Cells were grown for 6 days in the absence of drugs (A), or in the presence of 10 μM 4-methylpyrido[2,3,4-kl]acridine (B), 4 μM pyrido[2,3,4-kl]acridine (C), 0.08 μM eilatin (D), or 75 μM forskolin (E).
# As reviewed by Willingham, Int. Rev. […] Transformed fibroblasts which display altered growth patterns and aberrant morphologies respond to cAMP elevation by restoration of many normal aspects of growth and morphology, a phenomenon known as "cAMP-mediated reverse transformation" as described by Lockwood et al., J. Cell. Biochem., 33, 237-255 (1987).
# A-D show cells grown for 6 days in the absence of drugs (A), or in the presence of 75 μM forskolin (B), 13 μM Segoline B (C) or 0.21 μM Eilatin (D). E and F show the appearance of the Segoline B- and Eilatin-treated cells, 7 days after removal of the toxins.
# A: F-actin staining in control cells.
# [2] = tested on: neuroblastoma N1E-115 cells; assay: Growth and morphological differentiation of mouse neuroblastoma N1E-115 cells; settings: for effects on cell growth and differentiation / effect on cell division and morphological differentiation / long-term effect on cell division: single application; for effect on cell division and morphological differentiation: 3 days; for long-term effect on cell division: 6 days; for range of effective concentrations that inhibited cell proliferation and induced morphological differentiation / effects on cell appearance: N1E-115 cells; for range of effective concentrations that inhibited cell proliferation and induced morphological differentiation: below range no noticeable effect, above range cytotoxic; for effects on cell appearance: morphology; for most effective concentration for the cells tested: summary, cells tested in the present invention
# Experimental: A,B: Untreated cells, 3 (A) and 8 (B) days after subculture. C,D: Cells grown for 3 (C) and 8 (D) days with 12.8 μM Debromoshermilamine. E,F: Cells grown for 7 days with Isosegoline A (39 μM) and Norsegoline (16.3 μM), respectively.
# A,B: Untreated cells 3 (A) and 6 (B) days after subculture. C,D: Cells grown for 3 (C) and 6 (D) days with 50 μM forskolin. E,F: Cells grown for 3 (E) and 6 (F) days with 39 μM Segoline A. G,H: Cells grown for 3 (G) and 6 (H) days with 0.14 μM Eilatin.
# Cells were grown for six days in the absence of drugs (A), or in the presence of: 10 μM 4-methylpyrido[2,3,4-kl]acridine (B), 4 μM pyrido[2,3,4-kl]acridine (C), 0.08 μM Eilatin (D), 75 μM forskolin (E).
# The inventors chose the neuroblastoma N1E-115 cells because these tumor-derived cells can be induced to express characteristic neuronal properties by a variety of procedures see Spector, "Electrophysiology of clonal nerve cell lines. In: Excitable Cells in Tissue Culture", Nelson et al. eds., Plenum, New York 247-277 (1981) and can serve as a useful experimental system in which to explore the effects of the Eudistoma alkaloids on the biological properties of both cancer cells and neuronal cells.
# The N1E-115 cells were exposed to various concentrations of the six (6) natural products shown in FIG. 1, and of the two synthetic pyridoacridines shown in Scheme III of FIG. 2. […] A,B: Untreated cells, 3 (A) and 8 (B) days after subculture. C,D: Cells grown for 3 (C) and (8) days with 12.8 μM Debromoshermilamine. E,F: Cells grown for 7 days with Isosegoline A (39 μM) and Norsegoline (16.3 μM), respectively. FIG. 5 illustrates the appearance of N1E-115 cells 6 days after replating in the absence (A) and in the presence of 10 μM 4-methylpyrido[2,3,4-kl]acridine (B), or 4 μM pyrido[2,3,4-kl]acridine.
# [3] = tested on: type II cAMP-dependent protein kinase; settings: literature; cited from earlier work
# [4] = tested on: normal hamster fibroblast NIL8 cell line; assay: Growth and morphology of normal NIL8 fibroblast cells; assay type: cell-based
# Experimental: Cells were grown for 5 days in the absence of drugs (A), and in the presence of 25 μM forskolin (B), 1.4 μM Eilatin (C), or 12.8 μM Debromoshermilamine (D). […]
# As illustrated, a single application of 1.4 μM Eilatin or 12.8 μM Debromoshermilamine to NIL8 cells produced effects which are strikingly similar to those obtained by chronically treating time cells with agents that elevate or mimic cAMP. […] This predilection towards cancer cells is a very desirable property in developing potential drugs for the treatment of cancer.
# [5] = tested on: normal hamster fibroblast NIL8 cell line; assay: as above; assay type: cell-based; settings: single application
# [6] = tested on: pyruvate kinase; assay: Pyruvate kinase activity in cultured rat hepatoma FAO cells; assay type: cell-based; settings: for Km: control 0.14, read-out: Km for the substrate phosphoenolpyruvate (PEP)
# Experimental: FIG. 11 is a graph showing the effects of the Eudistoma alkaloids on pyruvate kinase activity in cultured rat hepatoma FAO cells. Enzyme activity v/Vmax was assayed as described in Example IV in partially purified extracts from cells incubated for 1 h in the absence ( ) or presence of 100 μM CPT-cAMP (.cndot.) and 26 μM segoline A ( ) as a function of substrate concentrations (phosphoenolpyruvate, PEP).
# 1. Activity of pyruvate kinase--a key glycolytic enzyme whose activity is inhibited by cAMP-dependent phosphorylation.
# FIG. 11 is a graph showing the effects of the Eudistoma alkaloids on pyruvate kinase activity in cultured rat hepatoma FAO cells. Enzyme activity v/Vmax was assayed in partially purified extracts from cells incubated for 1 h in the absence (squares) or presence of 100 μM 8-(4-chlorophenylthio) cyclic AMP (CPT-cAMP)-CPT-cAMP (circles) and 26 μM Segoline A (triangles) as a function of substrate concentrations (phosphoenolpyruvate, PEP).
# [7] = 1.4 μM Eilatin, 5 days, single application
smiles,measurement,setting,value
COc1cc2c3c4c(ccnc14)-c1ccccc1N3C1(C)C(=O)NC(=O)C2C1C (centres unmarked) [Segoline B],reversal of the effects of transformation,"[1]; 13 μM Segoline B, one application",permanently reverse the effects of transformation
same,effects on cell shape and actin organization,"[1]; 13 μM Segoline B, FIGS. 8C, 9B",became large and flat and showed the typical network of stress fibers
same,growth and morphology after drug removal,[1]; 7 days after removal of 13 μM Segoline B,maintained their reduced growth and flattened morphology
"Nc1ncnc2c1nc(Cl)n2[C@@H]1O[C@@H]2COP(=O)(O)O[C@H]2[C@H]1O [8-chloro-cAMP, reference compound]",effects on cell growth and differentiation,[2]; 8-chloro cAMP 250 μM,transient effects
same,preferential binding to type II cAMP-dependent protein kinase,[3],bind preferentially to type II cAMP-dependent protein kinase
"C=C[C@@]1(C)CC(=O)[C@]2(O)[C@@]3(C)[C@@H](O)CCC(C)(C)[C@@H]3[C@H](O)[C@H](OC(C)=O)[C@@]2(C)O1 [forskolin, reference compound]",effect on NIL8 cells,"[4]; 25 μM forskolin, 5 days, single application",the cells reached the high saturation densities typical of untreated cultures
same,effect on cell division and morphological differentiation,[2]; 50 μM forskolin,inhibited cell division and induced morphological differentiation
same,long-term effect on cell division,[2]; 50 μM forskolin,became confluent like the control cells
same,long-term effect on transformed phenotype,"[1]; 75 μM forskolin, 6 days (FIG. 8B)",reverted to the transformed phenotype
same,reversal of the effects of transformation,"[1]; forskolin 50-100 μM, single application, data not shown",transiently reverse the effects of transformation
"Cc1ccc2c3c(ccnc13)-c1ccccc1N2 [4-methylpyrido[2,3,4-kl]acridine]",range of effective concentrations that inhibited cell proliferation and induced morphological differentiation,[2],7.5-12.5 μM
same,effects on cell appearance,[2],most neurites were short
same,most effective concentration for the cells tested,[2],7.5 to 12.5 µM
same,effect on NIL8 cells,"[5]; 10 μM 4-methylpyrido[2,3,4-kl]acridine, 6 days",effects which were similar to those produced by the natural alkaloids
c1ccc2c(c1)nc1c3nc4ccccc4c4ccnc(c5nccc2c51)c43 [Eilatin],effect on cell shape of NIL8 cells,[4]; [7],more elongated
same,effect on growth of NIL8 cells,[4]; [7],growth was inhibited
same,effect on normal cells,[4]; at concentrations that induce differentiation and reverse transformation of transformed cells,no effect on normal cells
same,differentiation in N1E-115 cells,[2]; 0.08 μM Eilatin,produced differentiation in N1E-115 cells
same,effect on cell division and morphological differentiation,[2]; 0.14 μM Eilatin,inhibited cell division and induced morphological differentiation
same,long-term effect on cell division,[2]; 0.14 μM Eilatin,cell division is completely blocked
same,toxicity to transformed cells,"[2]; 1.4 μM Eilatin, N1E-115 (""both the transformed cell lines"")",toxic to both the transformed cell lines
same,range of effective concentrations that inhibited cell proliferation and induced morphological differentiation,[2],0.05-0.5 μM
same,effects on cell appearance,[2],flattened cell bodies as well as numerous long neurites
same,potency relative to the other five naturally occurring compounds and the synthetic pyridoacridines,[2]; actions at the cellular level,100 times
same,most effective concentration for the cells tested,[2],0.05 to 0.5 µM
same,cytotoxicity to transformed cells versus normal cells,[1],more cytotoxic to transformed cells than to normal cells
same,reverse transformation in NIL8-HSV cells,[1]; 0.08 μM Eilatin,reverse transformation in NIL8-HSV cells
same,reversal of the effects of transformation,"[1]; 0.21 μM Eilatin, one application",permanently reverse the effects of transformation
same,effects on cell shape and actin organization,"[1]; 0.21 μM Eilatin, FIG. 8D",became large and flat and showed the typical network of stress fibers
same,growth and morphology after drug removal,[1]; 7 days after removal of 0.21 μM Eilatin,maintained their reduced growth and flattened morphology
same,effect on NIL8 cells,[5]; 0.08 μM Eilatin,no effects on NIL8 cells; also recorded: did not exert any effect on the normal NIL8 cells
"Nc1ncnc2c1nc(Sc1ccc(Cl)cc1)n2[C@@H]1O[C@@H]2COP(=O)(O)O[C@H]2[C@H]1O [CPT-cAMP, 8-(4-chlorophenylthio) cyclic AMP, reference compound]",effects on cell growth and differentiation,[2]; CPT-cAMP 250-500 μM,transient effects
same,Km,"[6]; 100 μM CPT-cAMP, 1 h",520 µM
same,preferential binding to type II cAMP-dependent protein kinase,[3],bind preferentially to type II cAMP-dependent protein kinase
"COc1cc2c3c4c(ccnc14)-c1ccccc1N3C(C)C1(C)C(=O)NC(=O)C21 (single isomer, unassigned) [Isosegoline A]",range of effective concentrations that inhibited cell proliferation and induced morphological differentiation,[2],12-52 μM
same,effects on cell appearance,[2],flattened cell bodies as well as numerous long neurites
same,most effective concentration for the cells tested,[2],12 to 52 µM
"c1ccc2c(c1)Nc1cccc3nccc-2c13 [pyrido[2,3,4-kl]acridine]",range of effective concentrations that inhibited cell proliferation and induced morphological differentiation,[2],2-5 μM
same,effects on cell appearance,[2],flattened cell bodies as well as numerous long neurites
same,most effective concentration for the cells tested,[2],2 to 5 µM
same,effect on NIL8 cells,"[5]; 4 μM pyrido[2,3,4-kl]acridine, 6 days",effects which were similar to those produced by the natural alkaloids
COC(=O)c1cc(OC)c2nccc3c2c1Nc1ccccc1-3 [Norsegoline],range of effective concentrations that inhibited cell proliferation and induced morphological differentiation,[2],8-40 μM
same,effects on cell appearance,[2],relatively small cell bodies and numerous long neurites
same,most effective concentration for the cells tested,[2],8 to 40 µM
same,Km,[6]; concentration of alkaloid not given,400 µM
same,inhibition of pyruvate kinase activity,[6]; submaximal substrate concentrations,inhibit pyruvate kinase activity
same,rise in the Km for substrate (phosphoenolpyruvate),[6]; versus control,ca. 3 fold
